# According to patent publication US10906890B2, “Triazole phenyl compounds as agonists of the APJ receptor” (AMGEN INC., priority 2016, dated 2021):
# Target: human APJ receptor (Homo sapiens (Human), UniProt P35414)
# Test: [35S]GTPγS binding assay on membranes from CHO cells stably expressing human APJ receptor
# Assay type: biochemical
# Settings: means of several independent experiments, read-out: Activity hAPJ SPA EC50 IP
# Protocol: The human APJ receptor was cloned by polymerase chain reaction and the gene encoding the receptor was subcloned in pFLAG-CMV™-3 expression vector (Sigma, Saint Louis, Mo. USA) in-house at Amgen. A GTPγS binding assay was performed on membranes prepared from CHO cells stably expressing human APJ receptor. The optimum experimental conditions for the concentrations of GDP, MgCl2, and NaCl in the assay buffer were initially determined. […] Incubation was at RT for 90 min and the microplate was read using a ViewLux™ ultra HTS Microplate Imager (PerkinElmer, Inc.). All the results presented are means of several independent experiments and analyzed by non-linear regression methods using the commercially available program Prism (GraphPad, San Diego, Calif.) providing the EC50 values detailed in Table 28.
# Chain of human APJ receptor (P35414 whole entry): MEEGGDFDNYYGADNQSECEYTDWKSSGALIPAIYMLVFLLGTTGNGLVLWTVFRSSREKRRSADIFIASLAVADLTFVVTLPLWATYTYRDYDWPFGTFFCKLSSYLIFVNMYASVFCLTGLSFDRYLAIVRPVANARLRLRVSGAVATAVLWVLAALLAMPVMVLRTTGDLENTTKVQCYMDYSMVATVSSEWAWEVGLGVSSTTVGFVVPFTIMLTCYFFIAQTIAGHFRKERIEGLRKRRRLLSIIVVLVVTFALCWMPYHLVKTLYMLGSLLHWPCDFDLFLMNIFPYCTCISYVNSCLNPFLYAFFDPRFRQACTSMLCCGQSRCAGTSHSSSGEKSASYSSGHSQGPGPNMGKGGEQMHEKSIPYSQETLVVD
row,SMILES,EC50
1,"COc1cccc(OC)c1-n1c(NS(=O)(=O)[C@@H](C)[C@H](C)c2cnc(C)cn2)nnc1-c1ccccc1 [Example 25.0, (2S,3R)-N-(4-(2,6-dimethoxyphenyl)-5-phenyl-4H-1,2,4-triazol-3-yl)-3-(5-methyl-2-pyrazinyl)-2-butanesulfonamide]",1.3 nM
2,"COc1ncnc(OC)c1-n1c(NS(=O)(=O)[C@@H](C)[C@H](C)c2cnc(C)cn2)nnc1-c1ccccc1 [Example 26.0, (2S,3R)-N-(4-(4,6-dimethoxy-5-pyrimidinyl)-5-phenyl-4H-1,2,4-triazol-3-yl)-3-(5-methyl-2-pyrazinyl)-2-butanesulfonamide]",5.2 nM
3,"CO[C@H]1CCC[C@@H](OC)[C@@H]1n1c(NS(=O)(=O)[C@@H](C)[C@H](C)c2ncc(C)cn2)nnc1-c1ccccc1 [Example 33.0, (2S,3R)—N-(4-((1r,2R,6S)-2,6-Dimethoxycyclohexyl)-5-phenyl-4H-1,2,4-triazol-3-yl)-3-(5-methyl-2-pyrimidinyl)-2-butanesulfonamide]",230 nM
4,"COc1ccnc(OC)c1-n1c(NS(=O)(=O)[C@@H](C)[C@H](OC)c2ncc(C)cn2)nnc1-c1ccccc1 [Example 36.0, (1R,2S,P)-N-(4-(2,4-dimethoxy-3-pyridinyl)-5-phenyl-4H-1,2,4-triazol-3-yl)-1-methoxy-1-(5-methyl-2-pyrimidinyl)-2-propanesulfonamide and (1R,2S,S)-N-(4-(2,4-dimethoxy-3-pyridinyl)-5-phenyl-4H-1,2,4-triazol-3-yl)-1-methoxy-1-(5-methyl-2-pyrimidinyl)-2-propanesulfonamide]",1.9 nM
5,"COc1cccc(OC)c1-n1c(NS(=O)(=O)[C@@H](C)[C@H](OC)c2ncc(C)cn2)nnc1-c1ccc2c(c1)OC(F)(F)O2 [Example 39.0, (1R,2S)-N-(5-(2,2-difluoro-1,3-benzodioxol-5-yl)-4-(2,6-dimethoxyphenyl)-4H-1,2,4-triazol-3-yl)-1-methoxy-1-(5-methyl-2-pyrimidinyl)-2-propanesulfonamide]",160 nM
6,"Cc1cnc([C@@H](C)[C@H](C)S(=O)(=O)Nc2nnc(-c3ccccc3)n2-c2c(F)cccc2F)nc1 [Example 40.0, (2S,3R)-N-(4-(2,6-difluorophenyl)-5-phenyl-4H-1,2,4-triazol-3-yl)-3-(5-methyl-2-pyrimidinyl)-2-butanesulfonamide]",4.4 nM
7,"CO[C@H](c1ncc(C)cn1)[C@H](C)S(=O)(=O)Nc1nnc(-c2ccccc2)n1-c1c(F)cccc1F [Example 41.0, (1R,2S)-N-(4-(2,6-difluorophenyl)-5-phenyl-4H-1,2,4-triazol-3-yl)-1-methoxy-1-(5-methyl-2-pyrimidinyl)-2-propanesulfonamide]",4.7 nM
8,"Cc1cnc([C@H](OC(C)C)[C@H](C)S(=O)(=O)Nc2nnc(-c3ccccc3)n2-c2c(F)cccc2F)nc1 [Example 42.0, (1S,2S)-N-(4-(2,6-difluorophenyl)-5-phenyl-4H-1,2,4-triazol-3-yl)-1-(1-methylethoxy)-1-(5-methyl-2-pyrimidinyl)-2-propanesulfonamide]",3.4 nM
9,"Cc1cnc([C@@H](O[Si](C)(C)C(C)(C)C)[C@H](C)S(=O)(=O)Nc2nnc(-c3ccccc3)n2-c2c(F)cccc2F)nc1 [Example 44.0, (1R,2S)-1-((tert-butyl(dimethyl)silyl)oxy)-N-(4-(2,6-difluorophenyl)-5-phenyl-4H-1,2,4-triazol-3-yl)-1-(5-methyl-2-pyrimidinyl)-2-propanesulfonamide]",150 nM
10,Cc1cnc([C@@H](O)[C@H](C)S(=O)(=O)Nc2nnc(-c3ccccc3)n2-c2c(F)cccc2F)nc1 [Example 45.0],34 nM
11,"C[C@H](c1ncc(Cl)cn1)[C@H](C)S(=O)(=O)Nc1nnc(-c2ccccc2)n1-c1c(F)cccc1F [Example 46.0, (2S,3R)-3-(5-chloro-2-pyrimidinyl)-N-(4-(2,6-difluorophenyl)-5-phenyl-4H-1,2,4-triazol-3-yl)-2-butanesulfonamide]",1.7 nM
